Activity and IC50 data for five compounds are collected here from ChEMBL document CHEMBL1156522, “Lateral compartmentalization of T cell receptor versus CD45 by galectin-N-glycan binding and microfilaments coordinate basal and activation signaling” (J Biol Chem, 2007).

The test system of experiment [1] is T-cell. Nature of the experiment: Effect on TCR distribution within GM1-enriched microdomain in C57BL/6 mouse Mgat5 expressing T cells pretreated at 20 uM. Type of experiment: functional, cell-based.
The test system of experiment [2] is T-cell. The experiment is described as follows: Effect on CD4 distribution within GM1-enriched microdomain in C57BL/6 mouse Mgat5 expressing T cells pretreated at 20 uM. Type of experiment: functional, cell-based.
Experiment [3] concerns T-cell. The experiment is described as follows: Effect on CD45 distribution within GM1-enriched microdomain in C57BL/6 mouse Mgat5 expressing T cells pretreated at 20 uM. Type of experiment: functional, cell-based.
Experiment [4] has as its system Jurkat. Nature of the experiment: Induction of Nck protein binding to TCR complex in human Jurkat T cells by immunoprecipitation. Type of experiment: cell-based.
The test system of experiment [5] is Jurkat. The experiment is described as follows: Reduction of CD45 co-localization with GM1-enriched microdomain in human Jurkat T cells after 3 days. Type of experiment: functional, cell-based.
The target of experiment [6] is Proto-oncogene tyrosine-protein kinase LCK (Mus musculus) (UniProt P06240). The experiment is described as follows: Reversal of reduction of Lck Tyr394 phosphorylation in resting C57BL/6 mouse T cells at 20 uM by Western blot. Type of experiment: cell-based. The settings on record: T-cell. (In general: Immunoblotting shows a protein as a band on a membrane.)
Proto-oncogene tyrosine-protein kinase LCK (Mus musculus), sequence (P06240 2-509 limits assumed): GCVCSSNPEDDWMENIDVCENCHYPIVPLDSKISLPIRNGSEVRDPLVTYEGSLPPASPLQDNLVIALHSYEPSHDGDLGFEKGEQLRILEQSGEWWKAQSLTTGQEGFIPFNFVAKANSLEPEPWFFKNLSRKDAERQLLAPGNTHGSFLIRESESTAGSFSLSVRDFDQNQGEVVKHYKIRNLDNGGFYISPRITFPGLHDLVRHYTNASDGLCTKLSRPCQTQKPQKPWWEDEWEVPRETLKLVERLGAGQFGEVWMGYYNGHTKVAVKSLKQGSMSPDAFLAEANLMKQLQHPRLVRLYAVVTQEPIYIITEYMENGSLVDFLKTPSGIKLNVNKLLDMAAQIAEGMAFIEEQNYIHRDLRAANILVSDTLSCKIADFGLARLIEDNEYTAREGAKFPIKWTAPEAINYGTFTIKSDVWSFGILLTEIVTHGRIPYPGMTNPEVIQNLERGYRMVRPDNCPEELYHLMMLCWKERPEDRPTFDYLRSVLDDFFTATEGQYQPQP
Experiment [7] has the same target. The experiment is described as follows: Reduction of Lck Tyr394 phosphorylation in resting C57BL/6 mouse T cells at 20 uM by Western blot. Conditions: T-cell. Format: cell-based.
The species named for experiment [8] is Homo sapiens. The experiment is described as follows: Enhancement of Lck localization within GM1-enriched microdomain in CD45 deficient human J45.01 cells by Western blot. Type of experiment: functional.
Experiment [9] has as its system J-RT3-T3-5. The experiment is described as follows: Enhancement of Lck localization within GM1-enriched microdomain in TCRbeta deficient human J.RT3-T3.5 cells by Western blot. Format: functional.
For experiment [10], the system named is Jurkat. The experiment is described as follows: Enhancement of Lck localization within GM1-enriched microdomain in CD4 deficient human Jurkat D1. 1 cells by Western blot. Format: functional, cell-based.
Experiment [11] addresses T1, Linker for activation of T-cells family member 1 (Homo sapiens) (UniProt O43561).
T1 sequence (whole entry): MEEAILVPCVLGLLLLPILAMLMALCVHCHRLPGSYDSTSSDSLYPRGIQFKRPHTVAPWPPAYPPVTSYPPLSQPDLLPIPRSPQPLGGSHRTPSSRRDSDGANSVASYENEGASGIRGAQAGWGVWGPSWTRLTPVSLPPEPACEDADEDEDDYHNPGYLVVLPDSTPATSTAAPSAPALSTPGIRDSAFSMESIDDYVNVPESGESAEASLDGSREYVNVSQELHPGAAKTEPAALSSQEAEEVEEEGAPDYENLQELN
The experiment is described as follows: Increase in LAT phosphorylation in anti-CD3-coated microbeads-stimulated CD45 deficient human J45.01 cells after 3 days.

For experiment [12], the system named is T-cell. Nature of the experiment: Reduction of CD45 co-localization with GM1-enriched microdomain in resting C57BL/6 mouse T cells pretreated for 20 mins. Format: functional, cell-based.
Experiment [13] deals with T1, Linker for activation of T-cells family member 1 (Homo sapiens). Nature of the experiment: Induction of LAT phosphorylation in human Jurkat T cells at 5 uM after 3 days by Western blot analysis. Format: cell-based.
In experiment [14] the test system is T-cell. The experiment is described as follows: Increase T cell receptor co-localization to GM1-enriched microdomain in C57BL/6 mouse T cells pretreated for 20 mins. Format: functional, cell-based.
In experiment [15] the test system is T-cell. The experiment is described as follows: Increase CD4 co-localization to GM1-enriched microdomain in C57BL/6 mouse T cells pretreated for 20 mins. Format: functional, cell-based.
Experiment [16] deals with Jurkat. The experiment is described as follows: Increase in CD45 galectin lattice partition to GM1-enriched microdomain in human Jurkat T cells by densitometry. Format: functional, cell-based.
Experiment [17] has as its system J-RT3-T3-5. Nature of the experiment: Increase in CD45 galectin lattice partition to GM1-enriched microdomain TCRbeta deficient human J.RT3-T3.5 cells by densitometry. Format: functional.
The test system of experiment [18] is Jurkat. The experiment is described as follows: Increase in CD45 galectin lattice partition to GM1-enriched microdomain in CD4 deficient human Jurkat D1. 1 cells by densitometry. Type of experiment: functional, cell-based.
For experiment [19], the species on record is Homo sapiens. The experiment is described as follows: Increase in CD45 galectin lattice partition to GM1-enriched microdomain in CD45 deficient human J45.01 cells by densitometry. Format: functional.
Experiment [20] concerns Jurkat. The experiment is described as follows: Increase in TCR-CD3 galectin lattice partition to GM1-enriched microdomain in human Jurkat T cells by densitometry. Format: functional, cell-based.
In experiment [21] the test system is J-RT3-T3-5. The experiment is described as follows: Increase in TCR-CD3 galectin lattice partition to GM1-enriched microdomain TCRbeta deficient human J.RT3-T3.5 cells by densitometry. Format: functional.
For experiment [22], the system named is Jurkat. Nature of the experiment: Increase in TCR-CD3 galectin lattice partition to GM1-enriched microdomain in CD4 deficient human Jurkat D1. 1 cells by densitometry. Format: functional, cell-based.
The species entered for experiment [23] is Homo sapiens. Nature of the experiment: Increase in TCR-CD3 galectin lattice partition to GM1-enriched microdomain in CD45 deficient human J45.01 cells by densitometry. Format: functional.
For experiment [24], the system named is Jurkat. The experiment is described as follows: Increase in CD4 galectin lattice partition to GM1-enriched microdomain in human Jurkat T cells by densitometry. Format: functional, cell-based.
The subject of experiment [25] is J-RT3-T3-5. The experiment is described as follows: Increase in CD4 galectin lattice partition to GM1-enriched microdomain TCRbeta deficient human J.RT3-T3.5 cells by densitometry. Type of experiment: functional.
The species entered for experiment [26] is Homo sapiens. Nature of the experiment: Increase in CD4 galectin lattice partition to GM1-enriched microdomain in CD45 deficient human J45.01 cells by densitometry. Format: functional.
The test system of experiment [27] is Jurkat. Nature of the experiment: Enhancement of Lck localization within GM1-enriched microdomain in human Jurkat T cells by Western blot. Type of experiment: functional, cell-based.
Experiment [28] addresses T2, Tyrosine-protein kinase ZAP-70 (Homo sapiens) (UniProt P43403).
T2 sequence (whole entry): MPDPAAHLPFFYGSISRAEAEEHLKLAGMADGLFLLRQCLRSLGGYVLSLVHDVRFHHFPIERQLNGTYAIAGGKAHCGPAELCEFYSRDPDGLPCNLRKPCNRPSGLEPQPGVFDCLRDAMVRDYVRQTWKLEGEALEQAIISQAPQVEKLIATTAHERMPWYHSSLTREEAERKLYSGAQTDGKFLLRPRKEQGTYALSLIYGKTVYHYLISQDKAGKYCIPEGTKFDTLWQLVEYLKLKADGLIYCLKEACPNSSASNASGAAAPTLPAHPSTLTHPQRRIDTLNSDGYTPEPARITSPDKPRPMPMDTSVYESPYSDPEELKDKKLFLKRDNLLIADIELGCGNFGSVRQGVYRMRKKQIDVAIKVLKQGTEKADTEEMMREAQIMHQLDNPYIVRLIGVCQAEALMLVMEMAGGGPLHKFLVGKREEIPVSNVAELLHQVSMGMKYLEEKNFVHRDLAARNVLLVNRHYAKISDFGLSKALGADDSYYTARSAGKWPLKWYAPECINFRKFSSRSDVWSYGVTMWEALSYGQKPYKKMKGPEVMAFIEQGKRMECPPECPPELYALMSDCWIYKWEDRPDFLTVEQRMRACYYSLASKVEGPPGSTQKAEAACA
Nature of the experiment: Increase in Zap70 phosphorylation in anti-CD3-coated microbeads-stimulated CD45 deficient human J45.01 cells after 3 days.

In experiment [29] the test system is Jurkat. Nature of the experiment: Increase in ZAP70 expression in GM1-enriched microdomain of human Jurkat T cells by Western blot. Type of experiment: functional, cell-based.
For experiment [30], the species on record is Homo sapiens. Nature of the experiment: Increase in ZAP70 expression in GM1-enriched microdomain of Lck defient human JCaM1.6 cells by Western blot. Format: functional.
For experiment [31], the system named is Jurkat. Nature of the experiment: Reduction of CD4 surface expression in Lck deficient human Jurkat T cells by flow cytometry. Type of experiment: functional, cell-based.
The target in experiment [32] is T3, Tyrosine-protein kinase Lck (Homo sapiens, UniProt P06239). The experiment is described as follows: Induction of Lck Tyr394 phosphorylation in CD4 deficient human Jurkat T D1.1 cells at 5 uM after 3 days by Western blot analysis. Format: cell-based.
Target sequence in this assay (P06239 2-509 limits assumed): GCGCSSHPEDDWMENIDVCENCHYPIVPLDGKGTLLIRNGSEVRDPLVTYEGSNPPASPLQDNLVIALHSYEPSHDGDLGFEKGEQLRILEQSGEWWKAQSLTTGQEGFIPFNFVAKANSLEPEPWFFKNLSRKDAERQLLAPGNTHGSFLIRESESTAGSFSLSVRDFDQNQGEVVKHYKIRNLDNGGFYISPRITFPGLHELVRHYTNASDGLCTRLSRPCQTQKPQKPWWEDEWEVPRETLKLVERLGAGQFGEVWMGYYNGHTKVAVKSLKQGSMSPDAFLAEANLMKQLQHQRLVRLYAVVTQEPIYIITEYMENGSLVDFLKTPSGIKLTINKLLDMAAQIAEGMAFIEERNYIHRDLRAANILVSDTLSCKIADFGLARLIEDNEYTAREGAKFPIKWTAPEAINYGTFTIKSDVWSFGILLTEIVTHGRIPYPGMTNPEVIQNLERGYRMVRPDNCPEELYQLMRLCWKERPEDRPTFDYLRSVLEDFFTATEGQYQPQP
Experiment [33] addresses T3, Tyrosine-protein kinase Lck. Nature of the experiment: Induction of Lck Tyr394 phosphorylation in TCRbeta deficient human Jurkat T J.RT3-T3.5 cells at 5 uM after 3 days by Western blot analysis. Format: cell-based.
Target sequence in this assay (P06239 2-509 limits assumed): as above
The target is the same in experiment [34]. The experiment is described as follows: Induction of Lck Tyr394 phosphorylation in CD45 deficient human Jurkat T DJ45.01 cells at 5 uM after 3 days by Western blot analysis. Type of experiment: cell-based.
Target sequence in this assay (P06239 2-509 limits assumed): as above
Experiment [35] has the same target. The experiment is described as follows: Induction of Lck Tyr394 phosphorylation in human Jurkat T cells at 5 uM after 3 days by Western blot analysis. Format: cell-based.
Target sequence in this assay (P06239 2-509 limits assumed): as above
Experiment [36] addresses T2, Tyrosine-protein kinase ZAP-70 (Homo sapiens). Nature of the experiment: Induction of ZAP70 phosphorylation in human Jurkat T cells at 5 uM after 3 days by Western blot analysis. Format: cell-based.
For experiment [37], the target named is T3, Tyrosine-protein kinase Lck. The experiment is described as follows: Inhibition of Lck phosphorylation.
Target sequence in this assay (P06239 whole entry): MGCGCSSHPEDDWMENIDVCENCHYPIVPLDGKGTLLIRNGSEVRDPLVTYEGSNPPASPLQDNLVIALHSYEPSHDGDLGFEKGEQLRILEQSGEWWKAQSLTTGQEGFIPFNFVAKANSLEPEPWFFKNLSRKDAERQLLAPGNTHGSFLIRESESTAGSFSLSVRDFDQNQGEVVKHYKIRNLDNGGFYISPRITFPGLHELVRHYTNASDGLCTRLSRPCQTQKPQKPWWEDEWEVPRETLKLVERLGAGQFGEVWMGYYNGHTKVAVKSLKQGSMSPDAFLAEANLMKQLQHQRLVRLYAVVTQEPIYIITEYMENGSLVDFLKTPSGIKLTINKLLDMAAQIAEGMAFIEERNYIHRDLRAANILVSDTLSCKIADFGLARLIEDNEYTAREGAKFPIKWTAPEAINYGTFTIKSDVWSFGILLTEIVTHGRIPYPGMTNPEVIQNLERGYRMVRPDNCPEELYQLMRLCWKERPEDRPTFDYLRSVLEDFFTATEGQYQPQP
In experiment [38] the target is T4, Tyrosine-protein phosphatase non-receptor type 1 (Homo sapiens, UniProt P18031).
T4 sequence (P18031 whole entry): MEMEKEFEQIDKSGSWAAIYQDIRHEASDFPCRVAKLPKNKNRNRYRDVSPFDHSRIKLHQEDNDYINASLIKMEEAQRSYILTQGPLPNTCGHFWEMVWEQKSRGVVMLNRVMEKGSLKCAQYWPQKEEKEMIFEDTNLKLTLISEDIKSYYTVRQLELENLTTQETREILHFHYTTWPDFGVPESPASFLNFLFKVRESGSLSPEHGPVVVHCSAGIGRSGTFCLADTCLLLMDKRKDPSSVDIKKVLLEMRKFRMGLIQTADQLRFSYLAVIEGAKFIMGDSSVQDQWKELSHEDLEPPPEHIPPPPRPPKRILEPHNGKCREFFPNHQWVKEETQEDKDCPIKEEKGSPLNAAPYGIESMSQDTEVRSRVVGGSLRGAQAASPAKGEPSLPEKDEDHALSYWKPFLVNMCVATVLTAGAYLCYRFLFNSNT
The experiment is described as follows: Inhibition of protein tyrosine phosphatase N1 phosphorylation.

Experiment [39] concerns the target Tyrosine-protein phosphatase non-receptor type 13 (Homo sapiens, UniProt Q12923). The experiment is described as follows: Inhibition of protein tyrosine phosphatase N13 phosphorylation.

Active and inactive are the calls of the source. The calls are words filed in the database; no cut-off is given here.

Tyrosine-protein phosphatase non-receptor type 13, sequence (Q12923 whole entry): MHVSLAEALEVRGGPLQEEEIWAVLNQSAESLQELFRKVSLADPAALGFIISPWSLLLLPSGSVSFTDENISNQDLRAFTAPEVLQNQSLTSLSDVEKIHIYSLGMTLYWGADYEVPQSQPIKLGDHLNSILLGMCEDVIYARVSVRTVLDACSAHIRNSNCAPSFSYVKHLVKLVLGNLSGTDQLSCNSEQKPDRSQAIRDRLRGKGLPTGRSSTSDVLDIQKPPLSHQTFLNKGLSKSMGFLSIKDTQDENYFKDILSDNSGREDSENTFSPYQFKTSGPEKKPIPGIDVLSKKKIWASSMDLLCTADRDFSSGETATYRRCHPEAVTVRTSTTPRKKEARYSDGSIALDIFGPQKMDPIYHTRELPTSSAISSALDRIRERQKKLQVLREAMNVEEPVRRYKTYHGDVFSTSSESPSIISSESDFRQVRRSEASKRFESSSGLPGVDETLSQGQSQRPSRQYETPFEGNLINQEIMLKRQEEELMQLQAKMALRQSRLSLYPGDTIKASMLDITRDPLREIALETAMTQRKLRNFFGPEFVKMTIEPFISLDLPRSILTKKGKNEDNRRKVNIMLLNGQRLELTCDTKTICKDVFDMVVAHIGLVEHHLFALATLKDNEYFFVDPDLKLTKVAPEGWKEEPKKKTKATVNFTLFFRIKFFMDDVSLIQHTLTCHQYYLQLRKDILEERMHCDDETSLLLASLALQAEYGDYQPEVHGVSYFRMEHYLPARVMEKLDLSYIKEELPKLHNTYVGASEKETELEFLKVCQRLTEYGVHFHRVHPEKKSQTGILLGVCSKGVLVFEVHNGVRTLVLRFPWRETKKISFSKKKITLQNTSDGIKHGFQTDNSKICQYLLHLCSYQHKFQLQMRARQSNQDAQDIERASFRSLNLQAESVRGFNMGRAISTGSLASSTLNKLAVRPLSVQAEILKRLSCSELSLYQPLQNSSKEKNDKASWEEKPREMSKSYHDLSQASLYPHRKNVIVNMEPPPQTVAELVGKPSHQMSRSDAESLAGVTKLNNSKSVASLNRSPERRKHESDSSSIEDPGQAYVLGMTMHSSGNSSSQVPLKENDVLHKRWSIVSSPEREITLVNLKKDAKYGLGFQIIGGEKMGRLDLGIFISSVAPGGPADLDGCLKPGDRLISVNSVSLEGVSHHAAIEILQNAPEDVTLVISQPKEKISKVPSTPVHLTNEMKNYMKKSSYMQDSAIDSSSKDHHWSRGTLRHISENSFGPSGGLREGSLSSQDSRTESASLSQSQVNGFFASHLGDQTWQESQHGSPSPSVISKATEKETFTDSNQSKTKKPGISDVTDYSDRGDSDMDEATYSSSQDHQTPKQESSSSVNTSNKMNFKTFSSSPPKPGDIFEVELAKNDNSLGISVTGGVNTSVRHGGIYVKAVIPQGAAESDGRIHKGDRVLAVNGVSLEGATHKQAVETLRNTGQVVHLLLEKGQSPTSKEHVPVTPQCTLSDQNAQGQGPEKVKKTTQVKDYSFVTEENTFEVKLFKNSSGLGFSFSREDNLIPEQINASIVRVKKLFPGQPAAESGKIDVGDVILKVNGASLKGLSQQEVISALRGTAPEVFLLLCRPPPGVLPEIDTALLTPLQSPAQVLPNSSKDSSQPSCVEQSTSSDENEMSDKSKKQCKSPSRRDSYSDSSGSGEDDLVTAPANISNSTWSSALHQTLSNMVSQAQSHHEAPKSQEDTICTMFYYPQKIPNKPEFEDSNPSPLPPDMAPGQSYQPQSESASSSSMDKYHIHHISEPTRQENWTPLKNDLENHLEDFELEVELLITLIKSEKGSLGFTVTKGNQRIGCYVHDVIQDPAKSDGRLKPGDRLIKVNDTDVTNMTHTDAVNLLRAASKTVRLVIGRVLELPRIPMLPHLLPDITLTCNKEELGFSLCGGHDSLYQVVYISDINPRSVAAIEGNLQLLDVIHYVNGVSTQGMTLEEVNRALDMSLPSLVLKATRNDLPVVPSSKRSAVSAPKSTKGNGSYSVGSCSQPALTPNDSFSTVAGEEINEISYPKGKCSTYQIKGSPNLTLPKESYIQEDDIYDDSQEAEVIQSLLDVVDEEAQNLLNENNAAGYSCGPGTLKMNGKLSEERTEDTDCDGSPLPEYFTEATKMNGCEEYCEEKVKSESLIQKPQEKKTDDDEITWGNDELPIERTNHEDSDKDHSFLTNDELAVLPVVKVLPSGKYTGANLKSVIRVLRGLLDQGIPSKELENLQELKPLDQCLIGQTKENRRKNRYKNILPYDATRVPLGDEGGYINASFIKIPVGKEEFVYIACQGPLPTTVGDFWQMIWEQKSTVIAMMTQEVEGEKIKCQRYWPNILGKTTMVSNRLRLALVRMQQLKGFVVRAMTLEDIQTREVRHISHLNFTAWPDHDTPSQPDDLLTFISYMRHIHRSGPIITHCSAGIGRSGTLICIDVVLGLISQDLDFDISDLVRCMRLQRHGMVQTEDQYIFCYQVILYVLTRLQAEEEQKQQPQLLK

Take `CC(C)(C)n1nc(-c2ccc(Cl)cc2)c2c(N)ncnc21`: the outcome in [1], in experiment [2] and in experiment [3] was inactive.

Regarding LACTOSE, ANHYDROUS, the result in experiment [4] and in experiment [5] was Active.

As to `C/C1=C/C(=O)O[C@@H]2C[C@@H](CC[C@H](C)/C=C\C=C\CC1)O[C@@](O)([C@@H]1CSC(=O)N1)C2`, the result in experiment [6] and in [7] was Active.

Take `O[C@H]1[C@H]2[C@H](O)CCCN2C[C@H]1O`: the outcome in [8], in experiment [10], in experiment [12], in [4], in experiment [13] and in experiment [14] was Active. Besides, the outcome in experiment [15], in experiment [16], in experiment [17], in experiment [18], in [19] and in experiment [20] was Active. Besides, the result in experiment [21], in [22], in [23], in experiment [24], in experiment [25] and in experiment [27] was Active. Besides, the result in [29], in [31], in experiment [35] and in experiment [36] was Active. The outcome in [9], in experiment [11], in experiment [26], in experiment [28], in [30] and in experiment [32] was inactive. The result in [33] and in [34] was inactive.

The term IC50 denotes the concentration that gives 50% inhibition. Read a high IC50 as weaker potency. For the compound `CC(C)(C)C(=O)Nc1ccc2c(c1)C(=O)C(=O)c1ccccc1-2`, the IC50 was 3.8 µM in experiment [37], more than 30 µM in experiment [38] and more than 30 µM in experiment [39].
